What was measured:
B16 [1] = assay: Cytotoxicity against alpha-MSH stimulated mouse B16 cells after 72 hrs by MTT assay; assay type: cell-based; details: B16, 72 h
B16 [2] = assay: Inhibition of melanin production in alpha-MSH stimulated mouse B16 cells after 72 hrs by spectrophotometry; assay type: functional, cell-based; details: for IC50: B16, 72 h

| Compound | IC50 (B16 [1]) [µM] | inhibition (B16 [2]) | IC50 (B16 [2]) [nM] |
| --- | --- | --- | --- |
| C=C(C)[C@@]12O[C@@]3(/C=C/C=C/CCCCC)O[C@@H]1[C@@H]1[C@@H]4O[C@]4(CO)[C@@H](O)[C@]4(O)C(=O)C(C)=C[C@H]4[C@@]1(O3)[C@H](C)[C@H]2OC(=O)c1ccccc1 [GNIDILATIDIN] | > 30 | Dose-dependent effect | 160 |
| C=C(C)[C@]12C[C@@H](C)[C@@]34OC(c5ccccc5)(O[C@@H]1[C@@H]3[C@H](O)[C@](O)(CO)[C@@H](O)[C@@]1(O)[C@H]4C[C@H](C)[C@@H]1O)O2 | > 30 | Dose-dependent effect | 9000 |
| OC[C@H]1O[C@@H](Oc2ccc(O)cc2)[C@H](O)[C@@H](O)[C@@H]1O [ARBUTIN] |  |  | 140000 |
| C=C(C)[C@@]12O[C@@]3(/C=C/C=C/CCCCC)O[C@@H]1[C@@H]1[C@@H]4O[C@]4(CO)[C@@H](O)[C@]4(O)C(=O)C(C)=C[C@H]4[C@@]1(O3)[C@H](C)[C@H]2OC(C)=O [YUANHUADINE] | 22 | Dose-dependent effect | 60 |
| C=C(C)[C@]12C[C@@H](C)[C@@]34OC(c5ccccc5)(O[C@@H]1[C@@H]3[C@H](O)[C@](O)(COC(=O)c1ccccc1)[C@@H](O)[C@@]1(O)[C@H]4C[C@H](C)[C@@H]1O)O2 | > 30 | Dose-dependent effect | 2000 |
| C=C(C)[C@]12C[C@@H](C)[C@@]34OC(c5ccccc5)(O[C@@H]1[C@@H]3[C@H](O)[C@](O)(COC(=O)/C=C/C=C/CCCCC)[C@@H](O)[C@@]1(O)[C@H]4C[C@H](C)[C@@H]1O)O2 | > 30 | Dose-dependent effect | 570 |
| C=C(C)[C@@]12OCO[C@@H]1[C@@H]1[C@@H]3O[C@]3(CO)[C@@H](O)[C@]3(O)C(=O)C(C)=C[C@H]3[C@@]1(Oc1ccccc1)[C@H](C)[C@H]2OC(=O)c1ccccc1 [GENKWADAPHNIN] | > 30 | Dose-dependent effect | 180 |
| C=C(C)[C@@]12OC3(/C=C/C=C/CCCCC)O[C@@H]1[C@@H]1[C@@H]4O[C@]4(CO)[C@@H](O)[C@]4(O)C(=O)C(C)=C[C@H]4[C@@]1(O3)[C@H](C)[C@H]2OC(=O)CC | 28 | Dose-dependent effect | 190 |
| C=C(C)[C@@]12OC3(C)O[C@@H]1[C@@H]1C=C(CO)C[C@]4(O)C(=O)C(C)=C[C@H]4[C@@]1(O3)[C@H](C)[C@H]2OC(=O)c1ccccc1 | 6.6 |  | 2300 |
| C=C(C)[C@@]12OC3(C)O[C@@H]1[C@@H]1C=C(CO)C[C@]4(O)C(=O)C(C)=C[C@H]4[C@@]1(O3)[C@H](C)[C@H]2OC(C)=O | > 30 | Dose-dependent effect | 4900 |
